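Values below derive from 48-hour exposures of cells grown in 96-well plates, with endpoints linearly interpolated between the two concentrations bracketing the appropriate inhibition level. GI50 marks 50% less growth.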 Activity calls are given as the source filed them. Cut-off read from the data, not from the text of the source: active = GI50 up to about 1.1 µM and inactive = higher.
Columns and labels:
Experiment in all cases: DTP human tumour cell line panel, 48 h
[1] = system: 786-0
[2] = system: A498
[3] = system: A549
[4] = system: ACHN
[5] = system: BT-549
[6] = system: CAKI-1
[7] = system: CCRF-CEM
[8] = system: COLO 205
[9] = system: DU-145
[10] = system: EKVX
[11] = system: HCC 2998
[12] = system: HCT-116
[13] = system: HCT-15
[14] = system: HL-60
[15] = system: HOP-62
[16] = system: HOP-92
[17] = system: HT-29
[18] = system: Hs-578T
[19] = system: IGROV-1
[20] = system: K562
[21] = system: KM12
[22] = system: LOX IMVI
[23] = system: M14
[24] = system: MCF7
[25] = system: MDA-MB-231
[26] = system: MDA-MB-435
[27] = system: MDA-N
[28] = system: MOLT-4
[29] = system: Malme-3M
[30] = system: NCI-H226
[31] = system: NCI-H23
[32] = system: NCI-H460
[33] = system: NCI/ADR-RES
[34] = system: OVCAR-3
[35] = system: OVCAR-4
[36] = system: OVCAR-5
[37] = system: OVCAR-8
[38] = system: PC-3
[39] = system: RPMI-8226
[40] = system: RXF 393
[41] = system: SF-268
[42] = system: SF-295
[43] = system: SF-539
[44] = system: SK-MEL-28
[45] = system: SK-MEL-2
[46] = system: SK-MEL-5
[47] = system: SK-OV-3
[48] = system: SN12C
[49] = system: SNB-19
[50] = system: SNB-75
[51] = system: SW-620
[52] = system: T47D
[53] = system: TK-10
[54] = system: U-251
[55] = system: UACC-257
[56] = system: UACC-62
[57] = system: UO-31
[58] = system: NCI-H522

For `Cc1cc2oc(=N)c(C#N)c(C)c2cc1C`, the GI50 [1] was 96.4 µM (inactive), the GI50 [2] was > 100 µM (inactive) and the GI50 [3] was 48.8 µM (inactive). For the same compound, the GI50 [4] was 38.5 µM (inactive), the GI50 [5] was 39.4 µM (inactive) and the GI50 [6] was 57.8 µM (inactive). The GI50 [7] was 36.6 µM (inactive), the GI50 [8] was 48.1 µM (inactive) and the GI50 [9] was 84.7 µM (inactive). The GI50 [10] was 30.3 µM (inactive), the GI50 [11] was 52.5 µM (inactive) and the GI50 [12] was 53.1 µM (inactive). For the same compound, the GI50 [13] was 42.3 µM, the GI50 [14] was 33.4 µM (inactive) and the GI50 [15] was 52 µM (inactive). For the same compound, the GI50 [16] was 44.2 µM (inactive), the GI50 [17] was 63 µM (inactive) and the GI50 [18] was 26.3 µM (inactive). The GI50 [19] was 26.5 µM (inactive), the GI50 [20] was 24.5 µM (inactive) and the GI50 [21] was 39.9 µM (inactive). For the same compound, the GI50 [22] was 90.2 µM (inactive), the GI50 [23] was 67.6 µM (inactive) and the GI50 [24] was 31.9 µM (inactive). For the same compound, the GI50 [25] was > 100 µM (inactive), the GI50 [26] was 51.5 µM (inactive) and the GI50 [27] was 96.8 µM (inactive). The GI50 [28] was 2.5 µM (inactive), the GI50 [29] was 43 µM (inactive) and the GI50 [30] was 87.7 µM (inactive). For the same compound, the GI50 [31] was 31.3 µM (inactive), the GI50 [32] was 46.7 µM (inactive) and the GI50 [33] was 55.1 µM (inactive). The GI50 [34] was 70.1 µM (inactive), the GI50 [35] was 56.2 µM (inactive) and the GI50 [36] was > 100 µM (inactive). For the same compound, the GI50 [37] was 72.3 µM (inactive), the GI50 [38] was 36.9 µM (inactive) and the GI50 [39] was 42.7 µM (inactive). For the same compound, the GI50 [40] was 24.3 µM (inactive), the GI50 [41] was 44 µM (inactive) and the GI50 [42] was 44.6 µM (inactive). The GI50 [43] was 62.8 µM (inactive), the GI50 [44] was > 100 µM (inactive) and the GI50 [45] was 51.8 µM (inactive). The GI50 [46] was 30.7 µM (inactive), the GI50 [47] was 35.2 µM (inactive) and the GI50 [48] was 96.2 µM (inactive). The GI50 [49] was 83.2 µM (inactive), the GI50 [50] was 19.1 µM (inactive) and the GI50 [51] was 67.6 µM (inactive). The GI50 [52] was 40.6 µM (inactive), the GI50 [53] was 67.3 µM (inactive) and the GI50 [54] was 65.6 µM (inactive). The GI50 [55] was > 100 µM (inactive), the GI50 [56] was 47.4 µM (inactive) and the GI50 [57] was 45.1 µM (inactive).
For `COc1ccc(Cc2c(N)[nH]c(=O)n(C)c2=O)cc1`, the GI50 [1] was > 100 µM (inactive), the GI50 [2] was > 100 µM (inactive) and the GI50 [3] was > 100 µM (inactive). The GI50 [4] was > 100 µM (inactive), the GI50 [5] was > 100 µM (inactive) and the GI50 [6] was 96.6 µM (inactive). The GI50 [8] was > 100 µM (inactive), the GI50 [10] was 10.6 µM (inactive) and the GI50 [11] was > 100 µM (inactive). For the same compound, the GI50 [12] was > 100 µM (inactive), the GI50 [13] was 92.7 µM and the GI50 [15] was 31.1 µM (inactive). For the same compound, the GI50 [16] was 3.9 µM (inactive), the GI50 [17] was 47.5 µM (inactive) and the GI50 [18] was 45.1 µM (inactive). For the same compound, the GI50 [19] was > 100 µM (inactive), the GI50 [20] was > 100 µM (inactive) and the GI50 [21] was > 100 µM (inactive). The GI50 [22] was 56 µM (inactive), the GI50 [23] was > 100 µM (inactive) and the GI50 [24] was 5.75 µM (inactive). For the same compound, the GI50 [25] was 92.7 µM (inactive), the GI50 [26] was > 100 µM (inactive) and the GI50 [27] was > 100 µM (inactive). The GI50 [29] was > 100 µM (inactive), the GI50 [30] was > 100 µM (inactive) and the GI50 [31] was > 100 µM (inactive). For the same compound, the GI50 [32] was 72.1 µM (inactive), the GI50 [58] was > 100 µM (inactive) and the GI50 [33] was > 100 µM (inactive). For the same compound, the GI50 [34] was > 100 µM (inactive), the GI50 [35] was 89.7 µM (inactive) and the GI50 [36] was > 100 µM (inactive). The GI50 [37] was > 100 µM (inactive), the GI50 [38] was 97.3 µM (inactive) and the GI50 [39] was > 100 µM (inactive). For the same compound, the GI50 [40] was > 100 µM (inactive), the GI50 [41] was 34.6 µM (inactive) and the GI50 [42] was > 100 µM (inactive). For the same compound, the GI50 [43] was > 100 µM (inactive), the GI50 [44] was > 100 µM (inactive) and the GI50 [45] was > 100 µM (inactive). The GI50 [46] was > 100 µM (inactive), the GI50 [47] was > 100 µM (inactive) and the GI50 [48] was 42.8 µM (inactive). The GI50 [49] was > 100 µM (inactive), the GI50 [50] was 11.9 µM (inactive) and the GI50 [51] was > 100 µM (inactive). The GI50 [52] was > 100 µM (inactive), the GI50 [53] was > 100 µM (inactive) and the GI50 [54] was > 100 µM (inactive). The GI50 [55] was > 100 µM (inactive), the GI50 [56] was > 100 µM (inactive) and the GI50 [57] was 5 µM (inactive).

— ChEMBL document CHEMBL1201862, “PubChem BioAssay data set” (2004)
